The values that follow come from patent publication US11771738B2 (Zoetis Services LLC, priority 2018, dated 2023).

Common to all, as to assay type: cell-based
Test [1] deals with D. immitis L4 larvae. Put plainly: Dirofilaria immitis, L4 Stage (DiL4) In Vitro Assay. The settings on record: for minimal effective concentration: Dirofilaria immitis, 72 h, read-out: DiL4 MED, Minimum Effective Dose, D. immitis L4 larvae motility, in vitro; for DiMf/DiL4: larval stage selectivity, ratio of DiMf MED to DiL4 MED.
The test system of test [2] is microfilariae of Dirofilaria immitis. The test can be described thus: Dirofilaria immitis, Microfilaria (DiMf) In Vitro Assay. Conditions: Dirofilaria immitis, 72 h, read-out: DiMf MED, Minimum Effective Dose, D. immitis microfilariae motility, in vitro.
Test [3] has as its system third stage larvae of Haemonchus contortus. Put plainly: Haemonchus contortus, Larvae Stage 3 (HcL3) In Vitro Assay. The settings on record: Haemonchus contortus, 96 h.
[4] abbreviates: read-out: HcL3 MED, Haemonchus contortus third stage larvae in vitro, class mark appended to the Ex # in Table 3.
[5] abbreviates: read-out: HcL3 MED, Minimum Effective Dose, H. contortus third stage larvae, approximately 96 hours.
Setting [6] is: read-out: HcL3 MED, approximately 96 hours incubation, multiple-resistant field isolate.

The structures appear in SMILES notation. Where two headings read alike, the source gives them in different places. A value given as a limit tells only on which side of the number the result lay.

Consider `Cc1ncccc1Cc1ccc(C[C@@H]2OC(=O)[C@H](CC(C)C)N(C)C(=O)[C@@H](C)OC(=O)[C@@H](CC(C)C)N(C)C(=O)[C@@H](Cc3ccc(Cc4cccnc4C)cc3)OC(=O)[C@@H](CC(C)C)N(C)C(=O)[C@@H](C)OC(=O)[C@H](CC(C)C)N(C)C2=O)cc1` [Example 3-273, (3S,6R,9R,12R,15R,18R,21S,24S)-3,9,15,21-tetraisobutyl-4,6,10,16,18,22-hexamethyl-12,24-bis[[4-[(2-methyl-3-pyridyl)methyl]phenyl]methyl]-1,7,13,19-tetraoxa-4,10,16,22-tetrazacyclotetracosane-2,5,8,11,14,17,20,23-octaone], for which the minimal effective concentration is 0.0003 µM in test [1]; 0.002 µM in test [2]; < 1 µM in test [3] (setting [4]); 1 µM in test [3] (setting [5]); ≤ 1 µM in test [3] (setting [6]). The DiMf/DiL4 in test [1] is recorded as 6.7.
In the case of `CC(C)C[C@H]1C(=O)O[C@H](Cc2ccc(Cc3ccnn3CC3CC3)cc2)C(=O)N(C)[C@@H](CC(C)C)C(=O)O[C@H](C)C(=O)N(C)[C@@H](CC(C)C)C(=O)O[C@H](Cc2ccc(Cc3ccnn3CC3CC3)cc2)C(=O)N(C)[C@@H](CC(C)C)C(=O)O[C@H](C)C(=O)N1C` [Example 3-275, (3S,6R,9S,12R,15S,18R,21S,24R)-6,18-bis(4-((1-(cyclopropylmethyl)-1H-pyrazol-5-yl)methyl)benzyl)-3,9,15,21-tetraisobutyl-4,10,12,16,22,24-hexamethyl-1,7,13,19-tetraoxa-4,10,16,22-tetraazacyclotetracosan-2,5,8,11,14,17,20,23-octaone], the minimal effective concentration in test [1] is 0.001 µM; in test [2] it was 0.01 µM; in test [3] (setting [4]), 1 to 3.3 µM; in test [3] (setting [5]), 1.8 µM. The DiMf/DiL4 in test [1] was determined as 10.
For `COc1ccncc1Cc1ccc(C[C@H]2OC(=O)[C@H](CC(C)C)N(C)C(=O)[C@@H](C)OC(=O)[C@H](CC(C)C)N(C)C(=O)[C@@H](Cc3ccc(Cc4cnccc4OC)cc3)OC(=O)[C@H](CC(C)C)N(C)C(=O)[C@@H](C)OC(=O)[C@H](CC(C)C)N(C)C2=O)cc1` [Example 3-282, (3S,6R,9S,12R,15S,18R,21S,24R)-3,9,15,21-tetraisobutyl-6,18-bis(4-((4-methoxypyridin-3-yl)methyl)benzyl)-4,10,12,16,22,24-hexamethyl-1,7,13,19-tetraoxa-4,10,16,22-tetraazacyclotetracosan-2,5,8,11,14,17,20,23-octaone], the minimal effective concentration in test [1] is 0.001 µM; in test [2], 0.005 µM; in test [3] (setting [5]) it was 30 µM. In addition, the DiMf/DiL4 in test [1] worked out at 5.
With `CC(C)C[C@H]1C(=O)O[C@H](Cc2ccc(Cc3cncnc3C(C)C)cc2)C(=O)N(C)[C@@H](CC(C)C)C(=O)O[C@H](C)C(=O)N(C)[C@@H](CC(C)C)C(=O)O[C@H](Cc2ccc(Cc3cncnc3C(C)C)cc2)C(=O)N(C)[C@@H](CC(C)C)C(=O)O[C@H](C)C(=O)N1C` [Example 3-283, (3S,6R,9S,12R,15S,18R,21S,24R)-3,9,15,21-tetraisobutyl-6,18-bis(4-((4-isopropylpyrimidin-5-yl)methyl)benzyl)-4,10,12,16,22,24-hexamethyl-1,7,13,19-tetraoxa-4,10,16,22-tetraazacyclotetracosan-2,5,8,11,14,17,20,23-octaone], the minimal effective concentration was 0.0005 µM in test [1]; 0.003 µM in test [2]; < 1 µM in test [3] (setting [4]); 1 µM in test [3] (setting [5]); ≤ 1 µM in test [3] (setting [6]). Moreover, in test [1], the DiMf/DiL4 is recorded as 6.
On to `CC(C)C[C@H]1C(=O)O[C@H](Cc2ccc(Cc3cc(C4CC4)no3)cc2)C(=O)N(C)[C@@H](CC(C)C)C(=O)O[C@H](C)C(=O)N(C)[C@@H](CC(C)C)C(=O)O[C@H](Cc2ccc(Cc3cc(C4CC4)no3)cc2)C(=O)N(C)[C@@H](CC(C)C)C(=O)O[C@H](C)C(=O)N1C` [Example 3-284, (3S,6R,9S,12R,15S,18R,21S,24R)-6,18-bis(4-((3-cyclopropylisoxazol-5-yl)methyl)benzyl)-3,9,15,21-tetraisobutyl-4,10,12,16,22,24-hexamethyl-1,7,13,19-tetraoxa-4,10,16,22-tetraazacyclotetracosan-2,5,8,11,14,17,20,23-octaone], for which the minimal effective concentration in test [1] is 0.0005 µM; in test [2], 0.1 µM; in test [3] (setting [5]), > 10 µM. Also, the DiMf/DiL4 in test [1] is reported as 200.
The like results for `CC(C)C[C@H]1C(=O)O[C@H](Cc2ccc([C@H](F)c3nccs3)cc2)C(=O)N(C)[C@@H](CC(C)C)C(=O)O[C@H](C)C(=O)N(C)[C@@H](CC(C)C)C(=O)O[C@H](Cc2ccc([C@@H](F)c3nccs3)cc2)C(=O)N(C)[C@@H](CC(C)C)C(=O)O[C@H](C)C(=O)N1C` [Example 3-285, (3S,6R,9S,12R,15S,18R,21S,24R)-6-(4-((R)-fluoro(thiazol-2-yl)methyl)benzyl)-18-(4-((S)-fluoro(thiazol-2-yl)methyl)benzyl)-3,9,15,21-tetraisobutyl-4,10,12,16,22,24-hexamethyl-1,7,13,19-tetraoxa-4,10,16,22-tetraazacyclotetracosan-2,5,8,11,14,17,20,23-octaone] were, in that order, 0.0005 µM, 0.003 µM, 5.7 µM and 6.
The like results for `CC(C)C[C@H]1C(=O)O[C@H](Cc2ccc(Cc3cnn(CCF)c3)cc2)C(=O)N(C)[C@@H](CC(C)C)C(=O)O[C@H](C)C(=O)N(C)[C@@H](CC(C)C)C(=O)O[C@H](Cc2ccc(Cc3cnn(CCF)c3)cc2)C(=O)N(C)[C@@H](CC(C)C)C(=O)O[C@H](C)C(=O)N1C` [Example 3-286, (3S,6R,9S,12R,15S,18R,21S,24R)-6,18-bis(4-((1-(2-fluoroethyl)-1H-pyrazol-4-yl)methyl)benzyl)-3,9,15,21-tetraisobutyl-4,10,12,16,22,24-hexamethyl-1,7,13,19-tetraoxa-4,10,16,22-tetraazacyclotetracosan-2,5,8,11,14,17,20,23-octaone] were, in that order, 0.0005 µM, 0.03 µM, > 10 µM and 60.
As for `CC(C)C[C@H]1C(=O)O[C@H](Cc2ccc(Cc3ccc(C(F)F)nc3)cc2)C(=O)N(C)[C@@H](CC(C)C)C(=O)O[C@H](C)C(=O)N(C)[C@@H](CC(C)C)C(=O)O[C@H](Cc2ccc(Cc3ccc(C(F)F)nc3)cc2)C(=O)N(C)[C@@H](CC(C)C)C(=O)O[C@H](C)C(=O)N1C` [Example 3-287, (3S,6R,9S,12R,15S,18R,21S,24R)-6,18-bis(4-((6-(difluoromethyl)pyridin-3-yl)methyl)benzyl)-3,9,15,21-tetraisobutyl-4,10,12,16,22,24-hexamethyl-1,7,13,19-tetraoxa-4,10,16,22-tetraazacyclotetracosan-2,5,8,11,14,17,20,23-octaone], the figures for the minimal effective concentration in test [1], in test [2] and in test [3] (setting [5]) were 0.0005 µM, 0.05 µM and > 10 µM, respectively. Also, in test [1], the DiMf/DiL4 is 100.
Take `CC(C)C[C@H]1C(=O)O[C@H](Cc2ccc(Cc3cncnc3C3CC3)cc2)C(=O)N(C)[C@@H](CC(C)C)C(=O)O[C@H](C)C(=O)N(C)[C@@H](CC(C)C)C(=O)O[C@H](Cc2ccc(Cc3cncnc3C3CC3)cc2)C(=O)N(C)[C@@H](CC(C)C)C(=O)O[C@H](C)C(=O)N1C` [Example 3-289, (3S,6R,9S,12R,15S,18R,21S,24R)-6,18-bis(4-((4-cyclopropylpyrimidin-5-yl)methyl)benzyl)-3,9,15,21-tetraisobutyl-4,10,12,16,22,24-hexamethyl-1,7,13,19-tetraoxa-4,10,16,22-tetraazacyclotetracosan-2,5,8,11,14,17,20,23-octaone]: the minimal effective concentration in test [1] is 0.0005 µM; in test [2], 0.003 µM; in test [3] (setting [4]), 1 to 3.3 µM; in test [3] (setting [5]), 3.3 µM. Also, in test [1], the DiMf/DiL4 is given as 6.
For the molecule `CC(C)C[C@H]1C(=O)O[C@H](Cc2ccc(Cc3cccnc3C(F)F)cc2)C(=O)N(C)[C@@H](CC(C)C)C(=O)O[C@H](C)C(=O)N(C)[C@@H](CC(C)C)C(=O)O[C@H](Cc2ccc(Cc3cccnc3C(F)F)cc2)C(=O)N(C)[C@@H](CC(C)C)C(=O)O[C@H](C)C(=O)N1C` [Example 3-290, (3S,6R,9S,12R,15S,18R,21S,24R)-6,18-bis[[4-[[2-(difluoromethyl)-3-pyridyl]methyl]phenyl]methyl]-3,9,15,21-tetraisobutyl-4,10,12,16,22,24-hexamethyl-1,7,13,19-tetraoxa-4,10,16,22-tetrazacyclotetracosane-2,5,8,11,14,17,20,23-octaone], the minimal effective concentration is 0.0001 µM in test [1]; 0.0003 µM in test [2]; < 1 µM in test [3] (setting [4]); 0.2 µM in test [3] (setting [5]); ≤ 1 µM in test [3] (setting [6]). For the same molecule, in test [1], the DiMf/DiL4 turned out to be 3.
